Reference: the kinase profiling compilation of Christmann-Franck et al. (2016)
Where “and” joins values, the source holds several entries; their conditions need not be identical. Equal entries are not always repeated.

Experiments:
Experiment in all cases: radiometric filter-binding kinase assay, Kinase HotSpot
Settings in all cases: compound 0.5 µM; ATP 10 µM
ACVR1 (human) = ACVR1 (human) (UniProt Q04771)
KDR (human) = KDR (human) (UniProt P35968)
MAPK12 (human) = MAPK12 (human) (UniProt P53778)
RPS6KB2 (human) = RPS6KB2 (human) (UniProt Q9UBS0)
Chain of RPS6KB2 (human) (Q9UBS0 whole entry, looked up): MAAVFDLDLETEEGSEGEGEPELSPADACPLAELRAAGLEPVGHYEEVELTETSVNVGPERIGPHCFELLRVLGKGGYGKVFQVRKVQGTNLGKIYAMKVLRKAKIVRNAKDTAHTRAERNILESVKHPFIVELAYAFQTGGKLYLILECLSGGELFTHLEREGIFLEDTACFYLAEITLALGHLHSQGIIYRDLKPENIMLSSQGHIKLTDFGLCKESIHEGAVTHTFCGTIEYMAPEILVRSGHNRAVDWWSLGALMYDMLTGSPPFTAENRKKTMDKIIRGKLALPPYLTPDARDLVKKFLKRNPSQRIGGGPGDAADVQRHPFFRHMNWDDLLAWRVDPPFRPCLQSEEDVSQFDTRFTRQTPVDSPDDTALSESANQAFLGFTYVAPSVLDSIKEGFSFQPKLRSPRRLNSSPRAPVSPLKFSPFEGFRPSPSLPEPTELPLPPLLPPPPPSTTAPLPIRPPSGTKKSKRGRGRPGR

ULK1 (human) = ULK1 (human) (UniProt O75385)
PIM3 (human) = PIM3 (human) (UniProt Q86V86)
CHUK (human) = CHUK (human) (UniProt O15111)
Chain of CHUK (human) (O15111 whole entry, looked up): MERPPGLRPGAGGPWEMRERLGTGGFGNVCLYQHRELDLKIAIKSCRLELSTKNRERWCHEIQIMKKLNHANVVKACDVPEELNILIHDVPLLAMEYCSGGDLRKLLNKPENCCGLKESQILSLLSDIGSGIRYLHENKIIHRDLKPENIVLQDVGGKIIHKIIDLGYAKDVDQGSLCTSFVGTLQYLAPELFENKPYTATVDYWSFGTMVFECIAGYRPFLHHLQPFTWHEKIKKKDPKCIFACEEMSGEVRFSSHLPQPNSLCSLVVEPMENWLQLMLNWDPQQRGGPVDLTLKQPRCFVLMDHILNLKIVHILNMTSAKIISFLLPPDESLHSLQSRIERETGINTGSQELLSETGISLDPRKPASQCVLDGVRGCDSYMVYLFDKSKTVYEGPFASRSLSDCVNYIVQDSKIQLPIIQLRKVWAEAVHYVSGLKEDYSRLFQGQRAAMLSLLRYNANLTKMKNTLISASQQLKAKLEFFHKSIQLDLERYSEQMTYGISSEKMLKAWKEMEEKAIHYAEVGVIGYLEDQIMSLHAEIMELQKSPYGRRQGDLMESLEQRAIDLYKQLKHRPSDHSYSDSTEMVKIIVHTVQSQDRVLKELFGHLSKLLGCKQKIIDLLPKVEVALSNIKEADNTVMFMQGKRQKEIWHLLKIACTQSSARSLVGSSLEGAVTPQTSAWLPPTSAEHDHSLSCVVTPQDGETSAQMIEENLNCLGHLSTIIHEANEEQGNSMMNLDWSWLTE

RPS6KA1 KD1 KD2 (human) = RPS6KA1 KD1 KD2 (human) (UniProt Q15418)
NUAK2 (human) = NUAK2 (human) (UniProt Q9H093)
NEK4 (human) = NEK4 (human) (UniProt P51957)
NEK6 (human) = NEK6 (human) (UniProt Q9HC98)
MAPK10 (human) = MAPK10 (human) (UniProt P53779)
PRKG1 (human) = PRKG1 (human) (UniProt Q13976)
Chain of PRKG1 (human) (Q13976 whole entry, looked up): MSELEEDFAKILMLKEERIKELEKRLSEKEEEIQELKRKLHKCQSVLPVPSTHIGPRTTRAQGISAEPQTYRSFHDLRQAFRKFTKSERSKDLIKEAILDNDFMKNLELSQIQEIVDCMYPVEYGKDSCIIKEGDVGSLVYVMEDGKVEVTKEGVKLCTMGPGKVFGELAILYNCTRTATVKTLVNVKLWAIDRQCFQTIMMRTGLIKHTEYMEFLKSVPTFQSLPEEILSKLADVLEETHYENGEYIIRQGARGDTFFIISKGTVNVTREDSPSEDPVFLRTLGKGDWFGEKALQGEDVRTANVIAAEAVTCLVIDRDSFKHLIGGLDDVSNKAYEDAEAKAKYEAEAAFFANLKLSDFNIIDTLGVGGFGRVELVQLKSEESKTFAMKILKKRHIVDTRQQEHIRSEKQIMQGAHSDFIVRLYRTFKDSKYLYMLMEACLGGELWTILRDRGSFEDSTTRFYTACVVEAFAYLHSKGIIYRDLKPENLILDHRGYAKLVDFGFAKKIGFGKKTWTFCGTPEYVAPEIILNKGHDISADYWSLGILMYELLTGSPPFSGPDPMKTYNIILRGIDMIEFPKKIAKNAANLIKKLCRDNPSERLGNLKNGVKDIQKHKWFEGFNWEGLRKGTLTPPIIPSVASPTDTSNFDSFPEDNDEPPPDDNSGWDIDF

PRKCH (human) = PRKCH (human) (UniProt P24723)
MAPK13 (human) = MAPK13 (human) (UniProt O15264)
SRPK1 (human) = SRPK1 (human) (UniProt Q96SB4)
Chain of SRPK1 (human) (Q96SB4 whole entry, looked up): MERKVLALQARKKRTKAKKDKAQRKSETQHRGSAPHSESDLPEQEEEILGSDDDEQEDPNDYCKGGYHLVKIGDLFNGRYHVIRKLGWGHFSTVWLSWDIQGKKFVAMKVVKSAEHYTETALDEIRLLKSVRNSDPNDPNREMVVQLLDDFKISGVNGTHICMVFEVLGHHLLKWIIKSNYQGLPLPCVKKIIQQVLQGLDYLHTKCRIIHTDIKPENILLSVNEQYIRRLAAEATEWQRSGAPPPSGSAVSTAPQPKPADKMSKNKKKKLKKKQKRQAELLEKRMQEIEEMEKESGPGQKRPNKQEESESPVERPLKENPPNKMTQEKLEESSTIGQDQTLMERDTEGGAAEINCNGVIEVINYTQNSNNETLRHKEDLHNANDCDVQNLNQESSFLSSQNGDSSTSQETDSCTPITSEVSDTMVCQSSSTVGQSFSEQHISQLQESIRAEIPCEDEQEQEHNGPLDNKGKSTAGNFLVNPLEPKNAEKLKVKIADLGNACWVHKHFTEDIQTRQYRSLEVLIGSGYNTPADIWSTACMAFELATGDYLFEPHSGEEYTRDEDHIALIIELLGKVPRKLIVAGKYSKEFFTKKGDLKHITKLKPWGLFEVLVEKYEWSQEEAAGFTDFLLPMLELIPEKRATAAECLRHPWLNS

IRAK1 (human) = IRAK1 (human) (UniProt P51617)
MST1R (human) = MST1R (human) (UniProt Q04912)
SGK2 (human) = SGK2 (human) (UniProt Q9HBY8)
Chain of SGK2 (human) (Q9HBY8 whole entry, looked up): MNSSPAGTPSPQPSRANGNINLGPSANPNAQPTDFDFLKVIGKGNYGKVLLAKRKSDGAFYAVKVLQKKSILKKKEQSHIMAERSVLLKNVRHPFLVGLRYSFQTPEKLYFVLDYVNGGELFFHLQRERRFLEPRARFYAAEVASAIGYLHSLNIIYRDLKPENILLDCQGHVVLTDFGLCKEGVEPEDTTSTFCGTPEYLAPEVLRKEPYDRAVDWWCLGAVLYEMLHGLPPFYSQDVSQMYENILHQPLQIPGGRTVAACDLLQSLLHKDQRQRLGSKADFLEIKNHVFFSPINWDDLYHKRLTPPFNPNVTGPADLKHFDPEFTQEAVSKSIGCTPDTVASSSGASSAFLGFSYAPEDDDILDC

PRKCA (human) = PRKCA (human) (UniProt P17252)
NEK7 (human) = NEK7 (human) (UniProt Q8TDX7)
MARK1 (human) = MARK1 (human) (UniProt Q9P0L2)
CHEK2 (human) = CHEK2 (human) (UniProt O96017)
JAK3 JH1 JH2 (human) = JAK3 JH1 JH2 (human) (UniProt P52333)
FGFR4 (human) = FGFR4 (human) (UniProt P22455)
ALK (human) = ALK (human) (UniProt Q9UM73)
ROCK1 (human) = ROCK1 (human) (UniProt Q13464)
KIT (human) = KIT (human) (UniProt P10721)
Chain of KIT (human) (P10721 whole entry, looked up): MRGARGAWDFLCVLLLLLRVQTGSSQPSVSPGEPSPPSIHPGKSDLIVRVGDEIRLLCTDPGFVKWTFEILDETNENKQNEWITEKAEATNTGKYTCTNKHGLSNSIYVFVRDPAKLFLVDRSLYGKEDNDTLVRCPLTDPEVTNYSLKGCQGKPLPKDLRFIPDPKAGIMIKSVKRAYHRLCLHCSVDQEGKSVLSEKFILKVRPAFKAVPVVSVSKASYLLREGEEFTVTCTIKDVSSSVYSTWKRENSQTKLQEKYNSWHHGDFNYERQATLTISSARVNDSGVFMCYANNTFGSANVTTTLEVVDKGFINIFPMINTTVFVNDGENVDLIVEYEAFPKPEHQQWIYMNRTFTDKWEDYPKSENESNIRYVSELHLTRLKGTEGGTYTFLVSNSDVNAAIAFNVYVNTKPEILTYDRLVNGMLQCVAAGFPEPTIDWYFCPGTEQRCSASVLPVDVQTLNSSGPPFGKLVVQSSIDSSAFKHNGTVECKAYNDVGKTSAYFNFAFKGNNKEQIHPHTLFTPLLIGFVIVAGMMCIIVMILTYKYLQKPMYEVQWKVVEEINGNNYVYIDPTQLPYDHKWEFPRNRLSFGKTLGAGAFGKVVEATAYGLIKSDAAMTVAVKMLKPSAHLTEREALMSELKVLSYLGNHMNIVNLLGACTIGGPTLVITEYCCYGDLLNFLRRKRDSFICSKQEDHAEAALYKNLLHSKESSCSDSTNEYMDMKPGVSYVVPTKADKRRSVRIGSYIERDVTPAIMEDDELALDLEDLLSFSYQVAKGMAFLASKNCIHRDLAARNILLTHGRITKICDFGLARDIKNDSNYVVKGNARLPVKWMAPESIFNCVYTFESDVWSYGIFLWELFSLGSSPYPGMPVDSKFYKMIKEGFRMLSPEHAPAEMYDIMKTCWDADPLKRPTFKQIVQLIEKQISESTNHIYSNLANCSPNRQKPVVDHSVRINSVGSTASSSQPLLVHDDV

CLK3 (human) = CLK3 (human) (UniProt P49761)
Chain of CLK3 (human) (P49761 whole entry, looked up): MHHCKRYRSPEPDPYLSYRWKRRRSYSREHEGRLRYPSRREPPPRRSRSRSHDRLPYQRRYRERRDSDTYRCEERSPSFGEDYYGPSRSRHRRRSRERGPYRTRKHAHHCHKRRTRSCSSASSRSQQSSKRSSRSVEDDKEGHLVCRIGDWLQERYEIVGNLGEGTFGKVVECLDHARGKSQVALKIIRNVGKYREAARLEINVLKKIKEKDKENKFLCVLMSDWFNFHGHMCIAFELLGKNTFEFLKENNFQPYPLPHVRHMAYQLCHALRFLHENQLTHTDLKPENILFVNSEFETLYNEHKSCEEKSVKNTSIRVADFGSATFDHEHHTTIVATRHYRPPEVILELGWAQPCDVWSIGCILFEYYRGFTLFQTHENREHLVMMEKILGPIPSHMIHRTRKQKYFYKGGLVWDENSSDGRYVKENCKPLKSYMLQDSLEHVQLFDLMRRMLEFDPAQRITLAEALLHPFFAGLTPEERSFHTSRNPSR

MYLK (human) = MYLK (human) (UniProt Q15746)
EPHA4 (human) = EPHA4 (human) (UniProt P54764)
MAPK1 (human) = MAPK1 (human) (UniProt P28482)
MELK (human) = MELK (human) (UniProt Q14680)
TEC (human) = TEC (human) (UniProt P42680)
CDK6 CCND1 (human) = CDK6 CCND1 (human) (UniProt Q00534+P24385)
RPS6KB1 (human) = RPS6KB1 (human) (UniProt P23443)
Chain of RPS6KB1 (human) (P23443 whole entry, looked up): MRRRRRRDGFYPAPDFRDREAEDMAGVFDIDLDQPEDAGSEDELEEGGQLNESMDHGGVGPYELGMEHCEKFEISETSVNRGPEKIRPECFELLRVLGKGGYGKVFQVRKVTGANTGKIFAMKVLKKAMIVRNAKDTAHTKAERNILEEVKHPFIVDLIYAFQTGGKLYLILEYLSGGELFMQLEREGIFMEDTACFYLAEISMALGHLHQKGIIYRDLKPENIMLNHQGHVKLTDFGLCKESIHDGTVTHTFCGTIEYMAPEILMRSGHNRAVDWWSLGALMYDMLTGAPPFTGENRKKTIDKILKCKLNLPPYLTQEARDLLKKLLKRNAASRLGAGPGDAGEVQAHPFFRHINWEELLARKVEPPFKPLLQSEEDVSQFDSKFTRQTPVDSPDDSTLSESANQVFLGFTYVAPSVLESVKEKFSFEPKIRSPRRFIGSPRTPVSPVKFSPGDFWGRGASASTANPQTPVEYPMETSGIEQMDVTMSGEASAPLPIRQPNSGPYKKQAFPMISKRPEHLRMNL

PRKD2 (human) = PRKD2 (human) (UniProt Q9BZL6)
AURKC (human) = AURKC (human) (UniProt Q9UQB9)
PRKCZ (human) = PRKCZ (human) (UniProt Q05513)
MST4 (human) = MST4 (human) (UniProt Q9P289)
PASK (human) = PASK (human) (UniProt Q96RG2)
ERBB2 (human) = ERBB2 (human) (UniProt P04626)

For `Cc1nc(-c2ccccc2)c(-c2ccncc2)o1`, the residual activity (ACVR1 (human)) was 104%, the residual activity (KDR (human)) was 85.2% and the residual activity (MAPK12 (human)) was 105%. For the same compound, the residual activity (RPS6KB2 (human)) was 96%, the residual activity (ULK1 (human)) was 84.6% and the residual activity (PIM3 (human)) was 106%. It also gave a residual activity (CHUK (human)) of 105%, a residual activity (RPS6KA1 KD1 KD2 (human)) of 103% and a residual activity (NUAK2 (human)) of 128%. For the same compound, the residual activity (NEK4 (human)) was 100%, the residual activity (NEK6 (human)) was 94.4% and the residual activity (MAPK10 (human)) was 101%. The residual activity (PRKG1 (human)) was 90.5% and 96.1%, the residual activity (PRKCH (human)) was 88.1% and the residual activity (MAPK13 (human)) was 114%. The residual activity (SRPK1 (human)) was 101%, the residual activity (IRAK1 (human)) was 124% and the residual activity (MST1R (human)) was 95.9%. The residual activity (SGK2 (human)) was 105%, the residual activity (PRKCA (human)) was 98.3% and the residual activity (NEK7 (human)) was 102%. It also gave a residual activity (MARK1 (human)) of 92.5%, a residual activity (CHEK2 (human)) of 96.6% and a residual activity (JAK3 JH1 JH2 (human)) of 90.7%. The residual activity (FGFR4 (human)) was 76.5%, the residual activity (ALK (human)) was 108% and the residual activity (ROCK1 (human)) was 99.8%. It also gave a residual activity (KIT (human)) of 93.7%, a residual activity (CLK3 (human)) of 90.6% and a residual activity (MYLK (human)) of 101%. The residual activity (EPHA4 (human)) was 112%, the residual activity (MAPK1 (human)) was 90.3% and the residual activity (MELK (human)) was 105%. The residual activity (TEC (human)) was 127%, the residual activity (CDK6 CCND1 (human)) was 101% and the residual activity (RPS6KB1 (human)) was 92.8%. For the same compound, the residual activity (PRKD2 (human)) was 97.7%, the residual activity (AURKC (human)) was 95.7% and the residual activity (PRKCZ (human)) was 103%. It also gave a residual activity (MST4 (human)) of 114%, a residual activity (PASK (human)) of 98.1% and a residual activity (ERBB2 (human)) of 105%.

With `c1ccc2c(-c3ccncc3)c[nH]c2c1` the residual activity (ACVR1 (human)) was 94.7%, the residual activity (KDR (human)) was 94.2% and the residual activity (MAPK12 (human)) was 104%. The residual activity (RPS6KB2 (human)) was 97.8%, the residual activity (ULK1 (human)) was 83.8% and the residual activity (PIM3 (human)) was 103%. For the same compound, the residual activity (CHUK (human)) was 107%, the residual activity (RPS6KA1 KD1 KD2 (human)) was 93.8% and the residual activity (NUAK2 (human)) was 136%. It also gave a residual activity (NEK4 (human)) of 95.4%, a residual activity (NEK6 (human)) of 93.4% and a residual activity (MAPK10 (human)) of 102%. The residual activity (PRKG1 (human)) was 64.8% and 77.7%, the residual activity (PRKCH (human)) was 84.9% and the residual activity (MAPK13 (human)) was 123%. For the same compound, the residual activity (SRPK1 (human)) was 108%, the residual activity (IRAK1 (human)) was 127% and the residual activity (MST1R (human)) was 98.9%. For the same compound, the residual activity (SGK2 (human)) was 91%, the residual activity (PRKCA (human)) was 97.4% and the residual activity (NEK7 (human)) was 104%. The residual activity (MARK1 (human)) was 94.5%, the residual activity (CHEK2 (human)) was 99.3% and the residual activity (JAK3 JH1 JH2 (human)) was 95.3%. It also gave a residual activity (FGFR4 (human)) of 84.6%, a residual activity (ALK (human)) of 106% and a residual activity (ROCK1 (human)) of 84.2%. For the same compound, the residual activity (KIT (human)) was 93.2%, the residual activity (CLK3 (human)) was 92.6% and the residual activity (MYLK (human)) was 96.8%. For the same compound, the residual activity (EPHA4 (human)) was 108%, the residual activity (MAPK1 (human)) was 100% and the residual activity (MELK (human)) was 102%. For the same compound, the residual activity (TEC (human)) was 123%, the residual activity (CDK6 CCND1 (human)) was 97.6% and the residual activity (RPS6KB1 (human)) was 79.9%. For the same compound, the residual activity (PRKD2 (human)) was 95.7%, the residual activity (AURKC (human)) was 93.1% and the residual activity (PRKCZ (human)) was 98.3%. It also gave a residual activity (MST4 (human)) of 104%, a residual activity (PASK (human)) of 101% and a residual activity (ERBB2 (human)) of 95.6%.
